# Target: Nav 1.7 (Homo sapiens (Human), UniProt Q15858)
# Test: in-vitro Nav 1.7 PX (IC50)
# Type: cell-based
# Conditions: not given
# Chain of Nav 1.7 (Q15858 whole entry): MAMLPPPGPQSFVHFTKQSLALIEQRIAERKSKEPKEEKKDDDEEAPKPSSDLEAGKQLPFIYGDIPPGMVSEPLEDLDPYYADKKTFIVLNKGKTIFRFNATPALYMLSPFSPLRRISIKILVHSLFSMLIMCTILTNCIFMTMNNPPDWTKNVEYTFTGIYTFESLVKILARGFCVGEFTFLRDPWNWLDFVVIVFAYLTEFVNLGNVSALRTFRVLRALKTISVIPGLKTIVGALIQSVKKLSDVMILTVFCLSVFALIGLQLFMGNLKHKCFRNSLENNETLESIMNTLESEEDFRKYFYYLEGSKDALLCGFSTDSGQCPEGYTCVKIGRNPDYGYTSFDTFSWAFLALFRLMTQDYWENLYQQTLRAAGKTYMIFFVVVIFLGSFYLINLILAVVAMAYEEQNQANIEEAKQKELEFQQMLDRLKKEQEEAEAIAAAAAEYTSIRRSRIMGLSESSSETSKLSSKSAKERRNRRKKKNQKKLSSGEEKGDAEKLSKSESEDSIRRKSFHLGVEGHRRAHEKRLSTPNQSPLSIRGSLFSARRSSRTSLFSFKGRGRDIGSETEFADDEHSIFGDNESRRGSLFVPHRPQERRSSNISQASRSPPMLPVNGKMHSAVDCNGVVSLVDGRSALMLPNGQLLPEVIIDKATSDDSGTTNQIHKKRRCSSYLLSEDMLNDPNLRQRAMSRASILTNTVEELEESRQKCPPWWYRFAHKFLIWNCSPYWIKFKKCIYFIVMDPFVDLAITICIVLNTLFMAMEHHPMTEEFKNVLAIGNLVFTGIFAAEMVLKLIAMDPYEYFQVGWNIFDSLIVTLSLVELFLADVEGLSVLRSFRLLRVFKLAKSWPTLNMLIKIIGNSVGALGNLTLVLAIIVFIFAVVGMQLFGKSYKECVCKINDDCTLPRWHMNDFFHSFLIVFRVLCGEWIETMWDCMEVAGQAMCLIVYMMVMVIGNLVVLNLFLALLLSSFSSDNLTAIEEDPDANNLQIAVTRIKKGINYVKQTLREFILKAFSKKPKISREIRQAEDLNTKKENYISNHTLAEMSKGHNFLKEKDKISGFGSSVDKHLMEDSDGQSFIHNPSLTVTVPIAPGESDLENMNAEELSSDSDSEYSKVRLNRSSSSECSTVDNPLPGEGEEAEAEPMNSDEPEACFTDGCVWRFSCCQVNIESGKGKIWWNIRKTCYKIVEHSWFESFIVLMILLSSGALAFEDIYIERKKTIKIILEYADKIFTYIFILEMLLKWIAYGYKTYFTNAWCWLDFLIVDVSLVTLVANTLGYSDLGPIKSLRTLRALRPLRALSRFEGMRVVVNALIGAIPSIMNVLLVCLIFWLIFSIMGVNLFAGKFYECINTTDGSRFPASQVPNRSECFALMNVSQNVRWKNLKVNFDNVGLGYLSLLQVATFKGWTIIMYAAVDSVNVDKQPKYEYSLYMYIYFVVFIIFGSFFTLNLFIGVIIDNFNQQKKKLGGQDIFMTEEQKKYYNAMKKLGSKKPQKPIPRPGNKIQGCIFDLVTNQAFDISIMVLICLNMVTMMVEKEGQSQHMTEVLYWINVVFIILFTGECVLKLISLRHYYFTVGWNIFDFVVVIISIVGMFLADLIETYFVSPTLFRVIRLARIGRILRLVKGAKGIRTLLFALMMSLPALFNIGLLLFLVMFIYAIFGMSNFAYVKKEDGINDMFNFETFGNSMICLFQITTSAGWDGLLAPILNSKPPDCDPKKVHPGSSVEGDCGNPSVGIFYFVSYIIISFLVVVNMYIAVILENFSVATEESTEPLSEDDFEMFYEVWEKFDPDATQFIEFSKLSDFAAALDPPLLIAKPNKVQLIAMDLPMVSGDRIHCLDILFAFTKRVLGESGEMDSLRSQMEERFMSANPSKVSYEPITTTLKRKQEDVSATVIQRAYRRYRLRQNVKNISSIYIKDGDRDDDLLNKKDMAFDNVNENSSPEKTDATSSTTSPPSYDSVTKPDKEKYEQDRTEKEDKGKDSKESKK
row,Compound,IC50 [nM]
1,"COc1ccc(-c2cnn(C)c2)cc1-n1c(=O)ccc2cc(S(=O)(=O)Nc3ccon3)ccc21 [Example 486, N-3-isoxazolyl-1-(2-methoxy-5-(1-methyl-1H-pyrazol-4-yl)phenyl)-2-oxo-1,2-dihydro-6-quinolinesulfonamide]",27100
2,"COc1cc(-c2cccc(F)c2)c(Cl)cc1-n1c(=O)cc(C)c2cc(S(=O)(=O)Nc3ccon3)ccc21 [Example 348, P-1-(2-chloro-3′-fluoro-5-methoxy-[1,1′-biphenyl]-4-yl)-N-(isoxazol-3-yl)-4-methyl-2-oxo-1,2-dihydroquinoline-6-sulfonamide]",159
3,"COc1ccc(-c2cccc(F)c2)cc1-n1c(=O)ccc2cc(S(=O)(=O)Nc3ccon3)ccc21 [Example 482, 1-(3′-fluoro-4-methoxy-3-biphenylyl)-N-3-isoxazolyl-2-oxo-1,2-dihydro-6-quinolinesulfonamide]",80
4,"COc1cc(-c2cc(F)cc(Cl)c2)c(F)cc1-n1c(=O)ccc2cc(S(=O)(=O)Nc3ncc(F)cn3)ccc21 (atropisomer, axis not shown; (P)) [Example 544, (P)-1-(3′-chloro-2,5′-difluoro-5-methoxy-4-biphenylyl)-N-(5-fluoro-2-pyrimidinyl)-2-oxo-1,2-dihydro-6-quinolinesulfonamide]",14
5,"CCOc1cc(-c2cccc(F)c2)c(F)cc1-n1c(=O)ccc2cc(S(=O)(=O)Nc3ccon3)ccc21 (atropisomer, axis not shown; (P)) [Example 388, (P)-1-(5-ethoxy-2,3′-difluoro-[1,1′-biphenyl]-4-yl)-N-(isoxazol-3-yl)-2-oxo-1,2-dihydroquinoline-6-sulfonamide]",48

# More lines, now with the values ahead:
row,IC50 [nM],Compound
1,258,"COc1cc(-c2cccc(OC(C)C)c2)ccc1-n1c(=O)ccc2cc(S(=O)(=O)Nc3cccc(F)n3)ccc21 (atropisomer, axis not shown; (P)) [Example 1208, (P)-N-(6-fluoro-2-pyridinyl)-1-(3-methoxy-3′-(1-methylethoxy)-4-biphenylyl)-2-oxo-1,2-dihydro-6-quinolinesulfonamide]"
2,265,"COc1cc(-c2ccc(F)c(F)c2)c(F)cc1-n1c(=O)cnc2cc(S(=O)(=O)Nc3cccnn3)ccc21 [Example 1180, 2-oxo-N-3-pyridazinyl-1-(2,3′,4′-trifluoro-5-methoxy-4-biphenylyl)-1,2-dihydro-6-quinoxalinesulfonamide]"
3,3590,"COc1ccc(CC#N)cc1-n1c(=O)ccc2cc(S(=O)(=O)Nc3ccon3)ccc21 [Example 1146, 1-(5-(cyanomethyl)-2-methoxyphenyl)-N-3-isoxazolyl-2-oxo-1,2-dihydro-6-quinolinesulfonamide]"
4,63,"COc1cc(-c2cnc(OC)c(Cl)c2)c(F)cc1-n1c(=O)ccc2cc(S(=O)(=O)Nc3cccnn3)ccc21 (atropisomer, axis not shown; (P)) [Example 1157, (P)-1-(4-(5-chloro-6-methoxy-3-pyridinyl)-5-fluoro-2-methoxyphenyl)-2-oxo-N-3-pyridazinyl-1,2-dihydro-6-quinolinesulfonamide]"
5,93,"COc1cc(-c2cccc(OC(F)F)c2)c(F)cc1-n1c(=O)cnc2cc(S(=O)(=O)Nc3ccon3)ccc21 [Example 1193, 1-(3′-(difluoromethoxy)-2-fluoro-5-methoxy-4-biphenylyl)-N-3-isoxazolyl-2-oxo-1,2-dihydro-6-quinoxalinesulfonamide]"
6,79,"COc1cc(-c2cccc(C(F)(F)F)c2)ccc1-n1c(=O)ccc2cc(S(=O)(=O)Nc3cccc(F)n3)ccc21 (atropisomer, axis not shown; (P)) [Example 1242, (P)—N-(6-fluoro-2-pyridinyl)-1-(3-methoxy-3′-(trifluoromethyl)-4-biphenylyl)-2-oxo-1,2-dihydro-6-quinolinesulfonamide]"
7,39,"COc1cc(-c2ccc(F)c(Cl)c2)ccc1-n1c(=O)cnc2cc(S(=O)(=O)Nc3ccon3)ccc21 [Example 1198, 1-(3′-chloro-4′-fluoro-3-methoxy-4-biphenylyl)-N-3-isoxazolyl-2-oxo-1,2-dihydro-6-quinoxalinesulfonamide]"

# Same assay, conditions: in-vitro Nav 1.7 PX data
row,Compound,IC50 [nM]
1,"COc1cc(-c2cccc(C(F)(F)F)c2)ccc1-n1c(=O)ccc2cc(S(=O)(=O)Nc3ccncn3)ccc21 (atropisomer, axis not shown; (P)) [Example 671, (P)-1-(3-methoxy-3′-(trifluoromethyl)-4-biphenylyl)-2-oxo-N-4-pyrimidinyl-1,2-dihydro-6-quinolinesulfonamide]",11
2,"COc1cc(-c2ccc(Cl)cc2)c(F)cc1-n1c(=O)ccc2cc(S(=O)(=O)Nc3ccon3)ccc21 [634/675, 1-(4′-chloro-2-fluoro-5-methoxy-4-biphenylyl)-N-3-isoxazolyl-2-oxo-1,2-dihydro-6-quinolinesulfonamide]",13
3,"COc1nc(OCC2CC2)c(Cl)cc1-n1c(=O)ccc2cc(S(=O)(=O)Nc3ccon3)ccc21 [638/819, 1-(5-chloro-6-(cyclopropylmethoxy)-2-methoxy-3-pyridinyl)-N-3-isoxazolyl-2-oxo-1,2-dihydro-6-quinolinesulfonamide]",825
4,"COc1cc(-c2ccc(Cl)cc2)c(F)cc1-n1c(=O)ccc2cc(S(=O)(=O)Nc3cc(C)ncn3)ccc21 [Example 752, 1-(4′-chloro-2-fluoro-5-methoxy-4-biphenylyl)-N-(6-methyl-4-pyrimidinyl)-2-oxo-1,2-dihydro-6-quinolinesulfonamide]",20
5,"COc1cc(-c2ccnc(OC)c2Cl)c(F)cc1-n1c(=O)ccc2cc(S(=O)(=O)Nc3ccon3)ccc21 [Example 745, 1-(4-(3-chloro-2-methoxy-4-pyridinyl)-5-fluoro-2-methoxyphenyl)-N-3-isoxazolyl-2-oxo-1,2-dihydro-6-quinolinesulfonamide]",51
6,"COc1cc(-c2cc(F)cc(C(F)(F)F)c2)c(F)cc1-n1c(=O)ccc2cc(S(=O)(=O)Nc3ccon3)ccc21 [Example 711, 1-(2,3′-difluoro-5-methoxy-5′-(trifluoromethyl)-4-biphenylyl)-N-3-isoxazolyl-2-oxo-1,2-dihydro-6-quinolinesulfonamide]",9
7,"COc1cc(-c2ccc(Cl)c(C)c2)c(F)cc1-n1c(=O)ccc2cc(S(=O)(=O)Nc3ncon3)ccc21 (atropisomer, axis not shown; (P)) [Example 663, (P)-1-(4′-chloro-2-fluoro-5-methoxy-3′-methyl-4-biphenylyl)-N-1,2,4-oxadiazol-3-yl-2-oxo-1,2-dihydro-6-quinolinesulfonamide]",6

# Further lines, results first:
row,IC50 [nM],Compound
1,16,"COc1ccc(-c2cc(C)cc(Cl)c2)cc1-n1c(=O)ccc2cc(S(=O)(=O)Nc3ccon3)ccc21 [Example 867, 1-(3′-chloro-4-methoxy-5′-methyl-3-biphenylyl)-N-3-isoxazolyl-2-oxo-1,2-dihydro-6-quinolinesulfonamide]"
2,100,"COc1cc(-c2cc(OC)c(-n3c(=O)ccc4cc(S(=O)(=O)Nc5ccon5)ccc43)cc2F)c(Cl)cn1 [Example 759, 1-(4-(5-chloro-2-methoxy-4-pyridinyl)-5-fluoro-2-methoxyphenyl)-N-3-isoxazolyl-2-oxo-1,2-dihydro-6-quinolinesulfonamide]"
3,103,"COc1cc(-c2cc(Cl)cnc2OC)c(F)cc1-n1c(=O)ccc2cc(S(=O)(=O)Nc3cc(C)ncn3)ccc21 [Example 777, 1-(4-(5-chloro-2-methoxy-3-pyridinyl)-5-fluoro-2-methoxyphenyl)-N-(6-methyl-4-pyrimidinyl)-2-oxo-1,2-dihydro-6-quinolinesulfonamide]"
4,140,"COc1cc(-c2cccc(OC(C)C)c2)ccc1-n1c(=O)ccc2cc(S(=O)(=O)Nc3ncco3)ccc21 [Example 826, 1-(3-methoxy-3′-(1-methylethoxy)-4-biphenylyl)-N-1,3-oxazol-2-yl-2-oxo-1,2-dihydro-6-quinolinesulfonamide]"
5,131,"COc1cc(-c2cc(OC)c(-n3c(=O)ccc4cc(S(=O)(=O)Nc5cccnn5)ccc43)cc2F)ccc1F [Example 1007, 1-(2,4′-difluoro-3′,5-dimethoxy-4-biphenylyl)-2-oxo-N-3-pyridazinyl-1,2-dihydro-6-quinolinesulfonamide]"
6,307,"COc1cc(Br)c(F)cc1-n1c(=O)ccc2cc(S(=O)(=O)Nc3ccon3)ccc21 [Example 1105, 1-(4-bromo-5-fluoro-2-methoxyphenyl)-N-3-isoxazolyl-2-oxo-1,2-dihydro-6-quinolinesulfonamide]"
7,100,"COc1cc(-c2ccc(F)cc2)c(F)cc1-n1c(=O)ccc2cc(S(=O)(=O)Nc3ncc(F)cn3)ccc21 [Example 769, 1-(2,4′-difluoro-5-methoxy-4-biphenylyl)-N-(5-fluoro-2-pyrimidinyl)-2-oxo-1,2-dihydro-6-quinolinesulfonamide]"
8,22,"COc1ccc(-c2cccc(Cl)c2)cc1-n1c(=O)ccc2cc(S(=O)(=O)Nc3ccon3)ccc21 [Example 852, 1-(3′-chloro-4-methoxy-3-biphenylyl)-N-3-isoxazolyl-2-oxo-1,2-dihydro-6-quinolinesulfonamide]"
9,53,"COc1cc(-c2ccc(F)cc2)c(F)cc1-n1c(=O)ccc2cc(S(=O)(=O)Nc3ncco3)ccc21 [Example 771, 1-(2,4′-difluoro-5-methoxy-4-biphenylyl)-N-1,3-oxazol-2-yl-2-oxo-1,2-dihydro-6-quinolinesulfonamide]"

# Same assay, conditions: in-vitro Nav 1.7 PX data (PatchXpress)
row,IC50 [nM],Compound
1,32,"COc1cc(-c2cccc(C)c2Cl)ccc1-n1c(=O)ccc2cc(S(=O)(=O)Nc3ccon3)ccc21 [Example 1059, 1-(2′-chloro-3-methoxy-3′-methyl-4-biphenylyl)-N-3-isoxazolyl-2-oxo-1,2-dihydro-6-quinolinesulfonamide]"
2,1730,"O=c1ccc2cc(S(=O)(=O)Nc3ccon3)ccc2n1-c1cc(F)c(-c2cc(F)cc(F)c2)cc1O [Example 624, N-(isoxazol-3-yl)-2-oxo-1-(2,3′,5′-trifluoro-5-hydroxy-[1,1′-biphenyl]-4-yl)-1,2-dihydroquinoline-6-sulfonamide]"

# Same assay, conditions: in-vitro PatchXpress (PX)
row,IC50 [nM],Compound
1,4300,"COc1cc(-c2cccnc2)c(F)cc1-n1c(=O)ccc2cc(S(=O)(=O)Nc3ccon3)ccc21 [Example 404, 1-(5-fluoro-2-methoxy-4-(3-pyridinyl)phenyl)-N-3-isoxazolyl-2-oxo-1,2-dihydro-6-quinolinesulfonamide]"

# Reference: patent US9212182B2, “Bicyclic sulfonamide compounds as sodium channel inhibitors” (AMGEN INC., priority 2013, dated 2015)
